Test results taken from US20140330152A1, “PROVIDING EVIDENCE WHETHER AN INT[…] IS CORRECTLY POSITIONED” (priority 2011, published 2014).

Structure (SMILES): O=C([O-])O.[Na+] [bicarbonate (as NaHCO3), sodium bicarbonate]
- amount of exhaled carbon dioxide on extravascular administration (administered extravascularly): does not substantially increase
- clearance: amount of exhaled carbon dioxide returns to normal after administration is stopped (after intravenous administration is stopped): within the third exhalation
